Data as given in US11419829B2, “Use of cannabidiol in combination with 5-HT2B receptor agonists or amphetamines in the treatment of epilepsy” (GW Research Limited, priority 2017, dated 2022).
Counter-ions that a name gives are not always drawn.

What was measured:
[1] = biological target: T1, human recombinant 5-HT2C receptor (Homo sapiens, UniProt P28335); test: Inhibition of specific binding at human recombinant 5-HT2C receptors (FIG. 2B)
T1 sequence (P28335 33-458): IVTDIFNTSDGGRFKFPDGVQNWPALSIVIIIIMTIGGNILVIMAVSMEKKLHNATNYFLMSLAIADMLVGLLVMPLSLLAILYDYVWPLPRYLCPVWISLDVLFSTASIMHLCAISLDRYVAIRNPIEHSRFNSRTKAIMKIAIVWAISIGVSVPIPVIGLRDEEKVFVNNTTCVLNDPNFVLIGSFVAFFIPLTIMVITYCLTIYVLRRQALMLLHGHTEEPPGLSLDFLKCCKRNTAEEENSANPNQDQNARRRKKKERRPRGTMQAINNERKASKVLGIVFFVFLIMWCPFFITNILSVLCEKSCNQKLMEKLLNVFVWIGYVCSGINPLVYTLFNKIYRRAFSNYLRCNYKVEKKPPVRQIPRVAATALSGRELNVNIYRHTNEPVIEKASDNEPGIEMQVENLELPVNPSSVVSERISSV

[2] = Plasma concentrations in human clinical trials in epilepsy; type: in vivo
human 5-HT2B receptor [3] = biological target: T2, human 5-HT2B receptor (Homo sapiens, UniProt P41595); test: 5-HT2B antagonist effect, IP1 production (HTRF) in transfected CHO cells; type: cell-based; conditions: antagonism of 30 nM 5-HT
T2 construct: expressed in transfected cells; host or cells: CHO cells
T2 sequence (P41595 whole entry): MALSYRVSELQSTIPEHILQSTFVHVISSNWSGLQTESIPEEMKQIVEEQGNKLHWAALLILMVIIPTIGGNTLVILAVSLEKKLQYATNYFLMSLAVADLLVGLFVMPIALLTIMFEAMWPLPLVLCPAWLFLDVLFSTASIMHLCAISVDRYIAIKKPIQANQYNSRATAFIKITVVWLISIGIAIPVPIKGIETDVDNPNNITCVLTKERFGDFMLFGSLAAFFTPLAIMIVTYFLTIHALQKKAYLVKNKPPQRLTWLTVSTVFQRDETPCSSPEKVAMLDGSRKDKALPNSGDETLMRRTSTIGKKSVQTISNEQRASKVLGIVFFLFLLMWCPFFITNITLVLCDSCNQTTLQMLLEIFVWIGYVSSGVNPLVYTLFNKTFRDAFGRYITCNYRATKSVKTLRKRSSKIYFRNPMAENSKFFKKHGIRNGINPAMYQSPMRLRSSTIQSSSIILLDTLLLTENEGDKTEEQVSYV
Experimental: (§1) Evaluation of the activity of CBD and 7-OH-CBD at the human 5-HT2B receptor was undertaken in transfected CHO cells. Such activity as either an agonist or antagonist was determined by measuring their effects IP1 production using the HTRF detection method.
Cells were suspended in a buffer containing 10 mM Hepes/NaOH (pH 7.4), 4.2 mM KCl, 146 mM NaCl, 1 mM CaCl2), 0.5 mM MgCl2, 5.5 mM glucose and 50 mM LiCl, then distributed in microplates at a density of 4.104 cells/well and preincubated for 5 min at room temperature in the presence of buffer (basal control), test compound or reference antagonist.
Thereafter, the reference agonist 5-HT is added at a final concentration of 30 nM. […] Following 30 min incubation at 37° C., the cells are lysed and the fluorescence acceptor (D2-labeled IP1) and fluorescence donor (anti-IP1 antibody labelled with europium cryptate) are added.
After 60 min at room temperature, the fluorescence transfer is measured at ex=337 nm and λ em=620 and λ 665 nm using a microplate reader (Rubystar, BMG).
(§2) The IP1 concentration is determined by dividing the signal measured at 665 nm by that measured at 620 nm (ratio).
The results are expressed as a percent inhibition of the control response to 30 nM 5-HT. […]

human 5-HT2B receptor [4] = biological target: T2, human 5-HT2B receptor; test: 5-HT2B agonist effect, IP1 production (HTRF) in transfected CHO cells; type: cell-based; conditions: IP1 production vs 1 μM 5-HT control
Experimental: as §1
Cells were suspended in a buffer containing 10 mM Hepes/NaOH (pH 7.4), 4.2 mM KCl, 146 mM NaCl, 1 mM CaCl2), 0.5 mM MgCl2, 5.5 mM glucose and 50 mM LiCl, then distributed in microplates at a density of 4.104 cells/well and incubated for 30 min at 37° C. in the presence of buffer (basal control), test compound or reference agonist.
For stimulated control measurement, separate assay wells contain 1 μM 5-HT. Following incubation, the cells are lysed and the fluorescence acceptor (D2-labeled IP1) and fluorescence donor (anti-IP1 antibody labelled with europium cryptate) are added.
After 60 min at room temperature, the fluorescence transfer is measured at A ex=337 nm and A em=620 and 665 nm using a microplate reader (Rubystar, BMG).
as §2
The results are expressed as a percent of the control response to 1 μM 5-HT. The standard reference agonist is 5-HT, which is tested in each experiment at several concentrations to generate a concentration-response curve from which its EC50 value is calculated.

[5] = tested on: MES-induced tonic seizures; test: Maximal electroshock seizure (MES) test in mice with isobolographic/CalcuSyn DDI analysis; type: in vivo, mouse; conditions: for Dose Reduction Index (DRI): in CBD/FEN combination vs drug alone; for doses with statistically significant (p<0.05) anticonvulsant effect vs vehicle: Experiment A, single drug; for doses with statistically significant (p<0.05) anticonvulsant effect vs vehicle / effect on incidence of MES vs vehicle, drug alone: i.p.; for doses with statistically significant (p<0.05) anticonvulsant effect vs vehicle / ED50: mouse MES; for effect on incidence of MES vs vehicle, drug alone: Experiment B, low doses alone; for ED50: median-effect curves, drug alone, read-out: potency (Dm or ED50)
Experimental: The study was performed in two phases. […] Secondly, (Experiment B), drug-drug interactions (DDI) and anticonvulsant activities for CBD/FEN in combination were determined.
Experiment A was performed using 160 male, C57Bl6 mice, weighing between 20.1-30.1 g, and Experiment B was performed using 126 male, C57Bl6 mice, weighing between 19.2-26.1 g, purchased from a licensed breeder (Charles River, UK).
The following drugs were used in this study: Purified botanical CBD provided by GW Research Ltd., fenfluramine hydrochloride (FEN) purchased from Sigma Merck. The control vehicle used was 1:1:18 (5% ethanol, 5% Kolliphor EL, 90% saline). CBD and FEN were dissolved in the same control vehicle for comparison.
Animals were dosed (10 ml/kg) i.p. at 60 min for CBD and 30 min for FENS pre-treatment times, prior to MES and before plasma and brain sampling immediately post-MES test.
Here, doses were selected based on known ED50 and NOAELs for all the drugs and were: CBD-BOT [10, 30, 50, 70 and 100 mg/kg] and FEN [1, 2, 3, 5 and 10 mg/kg]. The number of animals in each of these groups were 10 (n=10), and 160 in total.
For Experiment B, in addition to the vehicle group, three dose groups were used for each of the treatments. Here, doses were selected based on analysis of the data obtained from Experiment A according to methods described for determination of isobolographic interactions. Doses as CBD/FEN combination were [20.9/2.5, 13.6/3.9 and 28.3/1.2 mg/kg]. The number of animals in each of these groups were 10 (n=10), and with individual CBD, FEN and VPA doses n=190 in total.
Electroconvulsions were produced by application of a fixed current intensity of 30 mA (0.2 sec duration) delivered via corneal electrodes. […] Mice were individually assessed for production of seizure determined by presence or absence of tonic hindlimb extension following current application.
Data were collected by an observer unaware of the treatment received by each animal.
The protective activities of CBD and FEN administered alone were evaluated and expressed as effective doses (ED50; mg/kg based on dose administered) and effective exposures (EE50; μM based on bioanalysis of brain samples) where EX50 is defined as the dose or brain exposure required to protect 50% of mice from MES-induced tonic seizures. CBD/FEN combinations were evaluated at 3 fixed ratios (1:3, 1:1 and 3:1) based on an EE50 derived from an assumption of linearly additive effects of EEs of the two drugs in combination.
For the three fixed-ratio CBD/FEN combinations (1:3, 1:1 and 3:1), calculations were based on Loewe's equation of additivity as follows; x/EE50(CBD)+y/EE50(FEN)=1; where x=the exposure of CBD and y=the exposure at which […], when co-administered with FEN, should theoretically exert the desired/additive 50% effect. Subsequently, CBD and FEN doses corresponding to 50% of respective EE50 were used for the CBD/FEN 1:1 ratio. Similarly, dose proportions were calculated for the CBD/FEN 1:3 and 3:1 ratios based on theoretical additive EE50.
The percentage protection of animals against MES-induced seizure were plotted against doses of AED alone (CBD or FEN) from Experiment A as log-probit linear regression analysis to derive ED50 and EE50.
Loewe's equation of additivity was used to determine fractions of EE50 in the three ratios 1:3, 1:1 and 3:1 for each of the combinations CBD/FEN. Graphs were plotted in Prism, for CBD and FEN to determine relationships versus these exposures to determine actual doses for the combination study (Experiment B).
DDI using these three-fixed dose-ratios of CBD/FEN was assessed using CalcuSyn v2.11 (Biosoft).

[6] = tested on: seizure frequency in patients with Dravet syndrome; conditions: low dose between 0.25 and 1.0 mg/kg/day; cited from earlier work

SMILES	interaction with the 5-HT2C receptor [1]	plasma concentration reached ([2]; human clinical trials in epilepsy, plasma)	molar plasma concentration ([2]; human clinical use of CBD, plasma) [µM]	Kb (human 5-HT2B receptor [3]) [nM]	agonist activity at 5-HT2B receptors (human 5-HT2B receptor [4])	Drug alone dose for the given effect ([5]; Effect 40%) [mg/kg]	Dose Reduction Index (DRI) ([5]; Effect 40%) [fold]	Drug alone dose for the given effect ([5]; Effect 80%) [mg/kg]	Dose Reduction Index (DRI) ([5]; Effect 80%) [fold]	Drug alone dose for the given effect ([5]; Effect 90%) [mg/kg]	Dose Reduction Index (DRI) ([5]; Effect 90%) [fold]	doses with statistically significant (p<0.05) anticonvulsant effect vs vehicle [5] [mg/kg]	effect on incidence of MES vs vehicle, drug alone [5]	ED50 [5] [mg/kg]	effect on seizure frequency [6]	7-OH-CBD concentration relative to that achieved by CBD ([2]; clinical use of CBD) [%]
C=C(C)[C@@H]1CCC(C)=C[C@H]1c1c(O)cc(CCCCC)cc1O [CBD, cannabidiol]	does not act upon the 5-HT2C receptors	up to 330 ng/mL	~1	3700	Neither CBD nor 7-OH-CBD possess agonist activity	28.46	1.006	56.55	2.704	77.15	5.690	50 to 100	no significant effect	33.2		
CCNC(C)Cc1cccc(C(F)(F)F)c1 (stereo not drawn) [FEN, fenfluramine hydrochloride, reference compound]						4.19	3.639	8.26	3.306	11.24	2.921	10	no significant effect	4.9	reduce seizure frequency	
C=C(C)[C@@H]1CCC(CO)=C[C@H]1c1c(O)cc(CCCCC)cc1O [7-OH-CBD, 7-hydroxy cannabidiol]				690	Neither CBD nor 7-OH-CBD possess agonist activity											~50
